What was measured:
[1] = test system: MCF-7 GFP-Rab27B cells; experiment: type I collagen invasion assay; assay type: cell-based; details: Homo sapiens, MCF7, 24 hours, MCF-7 GFP-Rab27B cells on type I collagen, P<0.001
Experimental: (§1) For the type I collagen invasion assay, the following precooled components were gently combined and defined as type I collagen solution: four volumes of type I collagen (stock is 3.49 mg/mL), five volumes of calcium- and magnesium-free Hank's balanced salt solution, one volume of MEM (10×), one volume of 0.25 M NaHCO3, 2.65 volumes of culture medium and 0.3 volumes of 1 M NaOH. For each test-condition, 1.25 mL of type I collagen solution was added to one well of 6-well plate, homogeneously spread and gelified on a flat surface in a humidified atmosphere of 10% CO2 in air at 37° C. for at least one hour. […]
(§2) Cell morphology was studied and invasion was scored after 24 hours (De Wever et al., (44)). […] It was calculated as (perimeter)^2÷(4π area), which describes the deviation of an object from a geometric circle. […] The number of invasive and non-invasive cells was counted in ten randomly selected microscopic fields with a 20× objective and 10× eye piece by two blinded observers using an inverted phase contrast microscope (DMI 3000B, Leica, Wetzlar, Germany). The invasion index was calculated as the ratio of the number of cells that invaded the gel divided by the total number of cells counted in each field. […]

[2] = test system: MCF-7 cells; experiment: type I collagen invasion assay with recombinant HSP90 proteins; assay type: cell-based, human; details: 24 hours
Experimental: as §1, §2

[3] = test system: cyclin A in MCF-7 GFP cells; experiment: cyclin A expression with recombinant HSP90α, Western blot; assay type: cell-based, human; details: 10 μg/mL
Experimental: For Western blot analysis MCF-7 cells (1-10×10^6) were harvested in Laemmli lysis buffer (0.125 M Tris-HCl [pH=6.8], 10% glycerol, 2.3% SDS). Cell lysates (25 μg) and CM (20 μL) were suspended in 10 μL reducing sample buffer (1M Tris-HCl [pH=6.8], 30% glycerol, 6% SDS, 3% β-mercaptoethanol, 0.005% bromophenol blue) and boiled for 5 minutes at 95° C. Samples were run on NuPage 4-20% Bis-Tris gradient gels (Invitrogen), transferred to PVDF membranes, blocked in 5% non-fat milk in PBS with 0.5% Tween-20, and immunostained. Scanning densitometry was carried out with the Quantity One Program (Bio-Rad).

[4] = test system: MCF-7 GFP cells; experiment: cell proliferation assay with recombinant HSP90α; assay type: cell-based, human; details: 10 μg/mL added to culture medium; P<0.001
Experimental: To examine whether Rab27B affects cell proliferation in a GTP-, geranylgeranyl-, and HSP90α-dependent manner, three sets of experiments were conducted: 1) proliferation rates of MCF-7 cells stably expressing GFP, GFP-Rab27B, GFP-Rab27B Q78L, GFP-Rab27B T23N, and GFP-Rab27B GER were compared; 2) proliferation rates of MCF-7 GFP-Rab27B cells transiently targeted with control or Rab27B siRNAs were studied; and 3) proliferation rates of MCF-7 GFP cells, treated with recombinant HSP90α, and MCF-7 GFP-Rab27B cells, challenged with control IgG or anti-HSP90α neutralizing antibody, were evaluated. To obtain a growth curve under each condition, triplicate wells of seeded cells were each counted five times. Two investigators independently counted the total number of cells in each well every 2 days for a total of 8 days with the use of a manual hemocytometer.

Compound: COC1=C2C[C@@H](C)C[C@H](OC)[C@H](O)[C@@H](C)/C=C(\C)[C@H](OC(N)=O)[C@@H](OC)/C=C\C=C(/C)C(=O)NC(=CC1=O)C2=O [geldanamycin]
- inhibition at 1 µM [1]: 85 to 100%

Compound: recombinant HSP90α: HSP90α recombinant protein obtained from Stressgen
- type I collagen invasion ([2]; 1-10 μg/mL recombinant protein, P=0.04 at 5 μg/mL, P=0.003 at 10 μg/mL): dose-dependent increase
- cyclin A expression [3]: increased cyclin A expression
- proliferation of MCF-7 cells [4]: increased proliferation

Compound: recombinant HSP90β: HSP90β recombinant protein obtained from Stressgen
- type I collagen invasion ([2]; 10 μg/mL recombinant protein): no effect

Source: patent publication US9103833B2, “Use of the GTPase Rab27B to diagnose and treat poor prognosis estrogen-receptor-positive breast cancer” (Universiteit Gent, priority 2009, dated 2015)
